Assay results published in PubChem BioAssay (NCI).
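At the GI50, growth is halved. Definition used: TGI = concentration required for complete inhibition of growth.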

How the values were obtained:
Assay in all cases: DTP human tumour cell line panel, 384-well format
COLO 205 colon = system: COLO 205 colon
SR leukemia = system: SR leukemia
NCI/ADR-RES ovarian = system: NCI/ADR-RES ovarian
SF-295 CNS = system: SF-295 CNS
IGROV1 ovarian = system: IGROV1 ovarian
786-0 renal = system: 786-0 renal
OVCAR-4 ovarian = system: OVCAR-4 ovarian
U251 glioblastoma = system: U251 glioblastoma
ACHN renal = system: ACHN renal
EKVX NSCLC = system: EKVX NSCLC
SNB-19 CNS = system: SNB-19 CNS
KM12 colon = system: KM12 colon
NCI-H23 lung = system: NCI-H23 lung
RXF 393 renal = system: RXF 393 renal
TK-10 renal = system: TK-10 renal
PC-3 prostate = system: PC-3 prostate
K-562 leukemia = system: K-562 leukemia
CAKI-1 renal = system: CAKI-1 renal
HOP-92 NSCLC = system: HOP-92 NSCLC
NCI-H460 NSCLC = system: NCI-H460 NSCLC
UACC-62 melanoma = system: UACC-62 melanoma
NCI-H226 lung = system: NCI-H226 lung
SK-MEL-28 melanoma = system: SK-MEL-28 melanoma
BT-549 breast = system: BT-549 breast
OVCAR-3 ovarian = system: OVCAR-3 ovarian
SK-MEL-5 melanoma = system: SK-MEL-5 melanoma
SF-539 CNS = system: SF-539 CNS
NCI-H322M lung = system: NCI-H322M lung
SK-MEL-2 melanoma = system: SK-MEL-2 melanoma
HCC-2998 colon = system: HCC-2998 colon
HCT-15 colon = system: HCT-15 colon
A549 NSCLC = system: A549 NSCLC
UACC-257 melanoma = system: UACC-257 melanoma
HCT-116 colon = system: HCT-116 colon
UO-31 renal = system: UO-31 renal
MALME-3M melanoma = system: MALME-3M melanoma
SK-OV-3 ovarian = system: SK-OV-3 ovarian
OVCAR-5 ovarian = system: OVCAR-5 ovarian
SN12C renal = system: SN12C renal
MDA-MB-231 breast = system: MDA-MB-231 breast
HS 578T breast = system: HS 578T breast
SW-620 colon = system: SW-620 colon
MOLT-4 leukemia = system: MOLT-4 leukemia
NCI-H522 lung = system: NCI-H522 lung
RPMI-8226 leukemia = system: RPMI-8226 leukemia
M14 melanoma = system: M14 melanoma
MDA-MB-435 melanoma = system: MDA-MB-435 melanoma

Compound `CS(=O)(=O)c1ccc(Oc2cc(F)cc(C#N)c2)c2c1[C@H](O)C(F)(F)C2` has a GI50 (COLO 205 colon) of over 100 µM, a TGI (COLO 205 colon) of over 100 µM and a GI50 (SR leukemia) of over 73.6 µM. For the same compound, the TGI (SR leukemia) was over 100 µM, the GI50 (NCI/ADR-RES ovarian) was over 100 µM and the TGI (NCI/ADR-RES ovarian) was over 100 µM. It also gave a GI50 (SF-295 CNS) of over 100 µM, a TGI (SF-295 CNS) of over 100 µM and a GI50 (IGROV1 ovarian) of over 100 µM. The TGI (IGROV1 ovarian) was over 100 µM, the GI50 ([…]-0 renal) was over 100 µM and the TGI (786-0 renal) was over 100 µM. For the same compound, the GI50 (OVCAR-4 ovarian) was over 100 µM, the TGI (OVCAR-4 ovarian) was over 100 µM and the GI50 (U251 glioblastoma) was over 100 µM. It also gave a TGI (U251 glioblastoma) of over 100 µM, a GI50 (ACHN renal) of over 100 µM and a TGI (ACHN renal) of over 100 µM. The GI50 (EKVX NSCLC) was over 100 µM, the TGI (EKVX NSCLC) was over 100 µM and the GI50 (SNB-19 CNS) was over 100 µM. For the same compound, the TGI (SNB-19 CNS) was over 100 µM, the GI50 (KM12 colon) was over 100 µM and the TGI (KM12 colon) was over 100 µM. For the same compound, the GI50 (NCI-H23 lung) was over 100 µM, the TGI (NCI-H23 lung) was over 100 µM and the GI50 (RXF 393 renal) was over 100 µM. It also gave a TGI (RXF 393 renal) of over 100 µM, a GI50 (TK-10 renal) of over 100 µM and a TGI (TK-10 renal) of over 100 µM. For the same compound, the GI50 (PC-3 prostate) was over 100 µM, the TGI (PC-3 prostate) was over 100 µM and the GI50 (K-562 leukemia) was over 100 µM. It also gave a TGI (K-562 leukemia) of over 100 µM, a GI50 (CAKI-1 renal) of over 78.9 µM and a TGI (CAKI-1 renal) of over 100 µM. For the same compound, the GI50 (HOP-92 NSCLC) was over 100 µM, the TGI (HOP-92 NSCLC) was over 100 µM and the GI50 (NCI-H460 NSCLC) was over 100 µM. For the same compound, the TGI (NCI-H460 NSCLC) was over 100 µM, the GI50 (UACC-62 melanoma) was over 100 µM and the TGI (UACC-62 melanoma) was over 100 µM. For the same compound, the GI50 (NCI-H226 lung) was over 100 µM, the TGI (NCI-H226 lung) was over 100 µM and the GI50 (SK-MEL-28 melanoma) was over 100 µM. It also gave a TGI (SK-MEL-28 melanoma) of over 100 µM, a GI50 (BT-549 breast) of over 100 µM and a TGI (BT-549 breast) of over 100 µM. The GI50 (OVCAR-3 ovarian) was over 100 µM, the TGI (OVCAR-3 ovarian) was over 100 µM and the GI50 (SK-MEL-5 melanoma) was over 100 µM. For the same compound, the TGI (SK-MEL-5 melanoma) was over 100 µM, the GI50 (SF-539 CNS) was over 100 µM and the TGI (SF-539 CNS) was over 100 µM. It also gave a GI50 (NCI-H322M lung) of over 100 µM, a TGI (NCI-H322M lung) of over 100 µM and a GI50 (SK-MEL-2 melanoma) of over 100 µM. For the same compound, the TGI (SK-MEL-2 melanoma) was over 100 µM, the GI50 (HCC-2998 colon) was over 100 µM and the TGI (HCC-2998 colon) was over 100 µM. For the same compound, the GI50 (HCT-15 colon) was over 100 µM, the TGI (HCT-15 colon) was over 100 µM and the GI50 (A549 NSCLC) was over 100 µM. The TGI (A549 NSCLC) was over 100 µM, the GI50 (UACC-257 melanoma) was over 100 µM and the TGI (UACC-257 melanoma) was over 100 µM. The GI50 (HCT-116 colon) was over 100 µM, the TGI (HCT-116 colon) was over 100 µM and the GI50 (UO-31 renal) was over 100 µM. The TGI (UO-31 renal) was over 100 µM, the GI50 (MALME-3M melanoma) was over 100 µM and the TGI (MALME-3M melanoma) was over 100 µM. The GI50 (SK-OV-3 ovarian) was over 100 µM, the TGI (SK-OV-3 ovarian) was over 100 µM and the GI50 (OVCAR-5 ovarian) was over 100 µM. The TGI (OVCAR-5 ovarian) was over 100 µM, the GI50 (SN12C renal) was over 100 µM and the TGI (SN12C renal) was over 100 µM. It also gave a GI50 (MDA-MB-231 breast) of over 100 µM, a TGI (MDA-MB-231 breast) of over 100 µM and a GI50 (HS 578T breast) of over 100 µM. The TGI (HS 578T breast) was over 100 µM, the GI50 (SW-620 colon) was over 100 µM and the TGI (SW-620 colon) was over 100 µM. It also gave a GI50 (MOLT-4 leukemia) of over 86.1 µM, a TGI (MOLT-4 leukemia) of over 100 µM and a GI50 (NCI-H522 lung) of over 100 µM. The TGI (NCI-H522 lung) was over 100 µM, the GI50 (RPMI-8226 leukemia) was over 100 µM and the TGI (RPMI-8226 leukemia) was over 100 µM. It also gave a GI50 (M14 melanoma) of over 100 µM, a TGI (M14 melanoma) of over 100 µM and a GI50 (MDA-MB-435 melanoma) of over 100 µM. The TGI (MDA-MB-435 melanoma) was over 100 µM.

`CC(C)n1c(=O)n(C)c2cnc3cc(F)c(-c4ccc(OCCCN5CCCCC5)nc4)cc3c21` showed a GI50 (COLO 205 colon) of over 100 µM, a TGI (COLO 205 colon) of over 100 µM and a GI50 (SR leukemia) of 7.14 µM. The TGI (SR leukemia) was 19.4 µM, the GI50 (NCI/ADR-RES ovarian) was over 100 µM and the TGI (NCI/ADR-RES ovarian) was over 100 µM. It also gave a GI50 (SF-295 CNS) of over 100 µM, a TGI (SF-295 CNS) of over 100 µM and a GI50 (IGROV1 ovarian) of over 100 µM. The TGI (IGROV1 ovarian) was over 100 µM, the GI50 ([…]-0 renal) was over 77.4 µM and the TGI (786-0 renal) was over 100 µM. For the same compound, the GI50 (OVCAR-4 ovarian) was over 100 µM, the TGI (OVCAR-4 ovarian) was over 100 µM and the GI50 (U251 glioblastoma) was over 70.8 µM. It also gave a TGI (U251 glioblastoma) of over 100 µM, a GI50 (ACHN renal) of over 60.2 µM and a TGI (ACHN renal) of over 100 µM. The GI50 (EKVX NSCLC) was 11.6 µM, the TGI (EKVX NSCLC) was over 100 µM and the GI50 (SNB-19 CNS) was over 95.5 µM. For the same compound, the TGI (SNB-19 CNS) was over 100 µM, the GI50 (KM12 colon) was 4.57 µM and the TGI (KM12 colon) was over 100 µM. For the same compound, the GI50 (NCI-H23 lung) was over 77.1 µM, the TGI (NCI-H23 lung) was over 100 µM and the GI50 (RXF 393 renal) was over 63.4 µM. It also gave a TGI (RXF 393 renal) of over 100 µM, a GI50 (TK-10 renal) of 51.7 µM and a TGI (TK-10 renal) of over 100 µM. For the same compound, the GI50 (PC-3 prostate) was 19.6 µM, the TGI (PC-3 prostate) was over 100 µM and the GI50 (K-562 leukemia) was 4.93 µM. It also gave a TGI (K-562 leukemia) of over 46.8 µM, a GI50 (CAKI-1 renal) of 16.7 µM and a TGI (CAKI-1 renal) of over 95.8 µM. For the same compound, the GI50 (HOP-92 NSCLC) was over 54.4 µM, the TGI (HOP-92 NSCLC) was over 100 µM and the GI50 (NCI-H460 NSCLC) was 18.6 µM. It also gave a TGI (NCI-H460 NSCLC) of over 100 µM, a GI50 (UACC-62 melanoma) of 31.9 µM and a TGI (UACC-62 melanoma) of over 100 µM. The GI50 (NCI-H226 lung) was 14.3 µM, the TGI (NCI-H226 lung) was over 100 µM and the GI50 (SK-MEL-28 melanoma) was over 100 µM. For the same compound, the TGI (SK-MEL-28 melanoma) was over 100 µM, the GI50 (BT-549 breast) was 9.56 µM and the TGI (BT-549 breast) was over 100 µM. The GI50 (OVCAR-3 ovarian) was 38.9 µM, the TGI (OVCAR-3 ovarian) was over 100 µM and the GI50 (SK-MEL-5 melanoma) was over 38.4 µM. For the same compound, the TGI (SK-MEL-5 melanoma) was over 100 µM, the GI50 (SF-539 CNS) was over 84.1 µM and the TGI (SF-539 CNS) was over 100 µM. For the same compound, the GI50 (NCI-H322M lung) was over 100 µM, the TGI (NCI-H322M lung) was over 100 µM and the GI50 (SK-MEL-2 melanoma) was 35.2 µM. It also gave a TGI (SK-MEL-2 melanoma) of over 70 µM, a GI50 (HCC-2998 colon) of 30.5 µM and a TGI (HCC-2998 colon) of over 80.3 µM. It also gave a GI50 (HCT-15 colon) of 52.3 µM, a TGI (HCT-15 colon) of over 100 µM and a GI50 (A549 NSCLC) of over 100 µM. It also gave a TGI (A549 NSCLC) of over 100 µM, a GI50 (UACC-257 melanoma) of 36.3 µM and a TGI (UACC-257 melanoma) of over 100 µM. The GI50 (HCT-116 colon) was 21.7 µM, the TGI (HCT-116 colon) was over 100 µM and the GI50 (UO-31 renal) was 83.8 µM. The TGI (UO-31 renal) was over 100 µM, the GI50 (MALME-3M melanoma) was over 100 µM and the TGI (MALME-3M melanoma) was over 100 µM. It also gave a GI50 (SK-OV-3 ovarian) of over 62.5 µM, a TGI (SK-OV-3 ovarian) of over 100 µM and a GI50 (OVCAR-5 ovarian) of over 100 µM. The TGI (OVCAR-5 ovarian) was over 100 µM, the GI50 (SN12C renal) was 25.8 µM and the TGI (SN12C renal) was over 100 µM. The GI50 (MDA-MB-231 breast) was 36.3 µM, the TGI (MDA-MB-231 breast) was over 100 µM and the GI50 (HS 578T breast) was 3.91 µM. For the same compound, the TGI (HS 578T breast) was 27.4 µM, the GI50 (SW-620 colon) was 19.5 µM and the TGI (SW-620 colon) was over 75.8 µM. The GI50 (MOLT-4 leukemia) was 5.66 µM, the TGI (MOLT-4 leukemia) was over 40.4 µM and the GI50 (NCI-H522 lung) was 20.8 µM. For the same compound, the TGI (NCI-H522 lung) was over 82 µM, the GI50 (RPMI-8226 leukemia) was 6.13 µM and the TGI (RPMI-8226 leukemia) was 42.1 µM. It also gave a GI50 (M14 melanoma) of over 75.7 µM, a TGI (M14 melanoma) of over 100 µM and a GI50 (MDA-MB-435 melanoma) of over 100 µM. It also gave a TGI (MDA-MB-435 melanoma) of over 100 µM.
